Measurements as given in patent US8119689B2, “Adjuvants on the basis of bisacyloxypropylcystene conjugates and derivatives and their uses in pharmaceutical compositions” (Helmholtz-Zentrum Fuer Infektionsforschung GmbH, priority 2005, dated 2012).

Experiments:
[1] = system: β-gal antigen-specific IgG isotypes; test: β-gal-specific IgG isotypes in sera of immunized mice (isotype ELISA); format: in vivo; details: after intranasal and after parenteral administration
Experimental: FIG. 8: FIG. 8 provides the analysis of beta-Gal specific IgG isotypes in sera of immunized mice. Anti-beta-Gal specific IgG isotypes of the groups immunized with PBS, (control) beta-Gal+either BPPcysGlyc4armPEG or BPPcysPEG (FIG. 8A) or BPPcysAda or Ada alone (FIG. 8B), or beta-Gal alone of mice immunized by the i.n. or s.c. route were determined by ELISA. Results are expressed as end point titers. IgG titers represent the mean of five animals per experimental group. Differences were statistically significant at p<0.05 (*) with respect to mice receiving antigen alone. One representative out of four independent experiments is shown. SEM is indicated by vertical lines.
Isotyp ELISA: 96-well Nunc-Immuno MaxiSorp assay plates (Nunc, Roskilde, Denmark) were coated with 100 μl of β-gal (Boehringer, Mannheim, Germany) at 5 μg/ml in 0.05 M carbonate buffer (pH 8.2) per well. Serial two-fold dilutions of sera or lavages in PBS with 1% BSA and 0.05% Tween 20 were added (100 μl/well), and plates incubated for 2 h at 37° C. After washing, biotin-conjugated rat anti-mouse IgG1 or IgG2a (Pharmingen, Hamburg, Germany) were added to determine IgG subclasses. Plates were incubated for an additional 1 h at 37° C. After four washes, 100 μl of peroxidase-conjugated streptavidin (Pharmingen) was added to cells and plates incubated at 37° C. for 30 min. After four washes, reactions were developed with ABTS in 0.1 M citrate-phosphate buffer (pH 4.35) containing 0.01% H2O2. To determine the concentration of IgG subclasses in serum, standard curves were obtained by coating the wells with an isotype-specific goat anti-mouse IgG, and then by incubating with purified mouse IgG1 or IgG2a antibodies (Dianova, Hamburg, Germany).

[2] = system: peritoneal macrophages from C3H/HeJ mice; test: Nitrogen monoxide release assay (macrophage activation); format: cell-based; details: 25 mM octylglucoside in first dilution step
Experimental: NO release of restimulated macrophages using different concentrations (serial dilutions) of the macrophage activator BPPcysGlyc4armPEG as adjuvant. As positive control, the NO release of macrophages in response to serial dilutions of Malp-2 and in response to 4armPEG molecules (negative control) are shown.
In brief, peritoneal macrophages from C3H/HeJ mice were used as the macrophage source. They were cultured in 96-well microtiter plates and stimulated simultaneously with rIFN-γ and a serial dilution of macrophage activator. Insofar as necessary (i.e. R-Malp-2/standard), the macrophage activators were dissolved in 25 mM octylglucoside in the first dilution step and then diluted further with medium. After an incubating time of 45-48 hours, the nitrate was reduced with nitrate reductase and the starting substance nitrogen monoxide was determined, as the sum of nitrate and nitrite, using Griess' reagent. 1 unit (U)/ml is defined as the dilution at which half-maximal stimulation takes place.

[3] = system: primary bone marrow-derived dendritic cells; test: In vitro stimulation of primary bone marrow-derived murine dendritic cells, surface markers by flow cytometry; format: cell-based, BALB/c mice; details: concentration enhanced to 100 ng/ml (not shown)
Experimental: FIG. 1: FIGS. 1A-1C show the results for In vitro studies using primary dendritic cells. Primary bone marrow-derived dendritic cell cultures were obtained from BALB/c mice by in vitro maturation of precursors using recombinant GM-CSF (5×10^4 U/ml). Mature dendritic cells were stimulated with 10 ng/ml of E. coli lypopolysaccharide (LPS) or 50 and 100 ng/ml of BPPcysGlyc4armPEG and BPPcysAda, respectively. Then, cells were double-labeled with antibodies specific for CD11c (dendritic cell marker) in combination with anti-CD40, anti-CD54, anti-CD80, anti-CD86, anti-MHC class 1, or anti-MHC class 11 antibodies. The expression of CD40, CD80, CD54, CD86, anti-MHC class 1, and MHC class 11 in CD11c-gated cells were analyzed by flow cytometry.
Experimental protocol: primary bone marrow-derived dendritic cell cultures were obtained from BALB/c mice following in vitro maturation of precursors in the presence of recombinant GM-CSF (5×10^4 U/ml), according to established protocols. Mature dendritic cells were stimulated with 10 ng/ml of E. coli lypopolysaccharide (LPS) or 5 ng/ml of BPPcysGlyc4armPEG, after 12, 24 and/or 48 h stimulation cells were analyzed by flow cytometry to assess the expression of surface markers which are relevant for their antigen presentation capacity.
In order to identify compounds which may have potential as adjuvants for in vivo applications in the vaccinology field, a first in vitro screening based on the used of primary cultures of bone marrow-derived dendritic cells was established. Dendritic cells were selected since they represent the most efficient antigen presenting cells and they play a key role by primary immune responses. In fact, they are the only cell type able to activate resting T cells initiating primary immune responses in vivo. Thus, dendritic cell cultures were treated with the tested moieties or LPS, which was used as a positive control. At different time intervals, samples were taken, stained with fluorescent-labeled antibodies specific for cellular markers critical for the antigen presenting capacities of dendritic cells, and analyzed by flow cytometry.
To test the stimulatory capacity of BPPCysAda on maturation and activation of bone marrow-derived DC, immature DC's were stimulated in vitro with BPPCysAda. Surface markers on CD11c+-gated DC were investigated by FACS analysis after 16 or 40 h pre-treatment.

Nc1ncnc2c1ncn2[C@@H]1O[C@@H]2COP(=O)(O)O[C@H]3[C@@H](O)[C@H](n4cnc5c(N)ncnc54)O[C@@H]3COP(=O)(O)O[C@H]2[C@H]1O [c-diAMP]
antigen-specific antibody response [1]: strong antigen-specific antibody response

MALP-2 [reference compound]
effect of adding a solubilizer (octylglucoside) on macrophage activation [2]: required | differences in the expression of surface markers when concentration enhanced [3]: No differences
